Assay results: PMC11811597, “Phenomics‐Based Discovery of Novel Orthosteric Choline Kinase Inhibitors” (Angewandte Chemie (International Ed. in English), 2025)

Experiments:
CHKA [1] = target: T1, CHKA (Homo sapiens, UniProt P35790); experiment: PK/LDH coupled choline kinase enzyme assay; assay type: biochemical; parameters: host or cells: E. coli BL21(DE3); conditions: concentration-dependent
Method: (§1) carried out using REFMAC[9] and COOT,[10] and concluded when no improvements resulted for Rfree and Rwork values, and when density maps indicated no further changes were justified.
(§2) Choline Coupled Enzymatic Assay
CHKA (120 ng, 24 µg/ml) was arrayed (5 µL) into a 96 well semi-skirted real time PCR plate. 4-fold dilution series and vehicle controls (0.5% DMSO) were prepared in a separate plate. A further DMSO control was included for use with a no protein well control. The dilutions (17 µL) were mixed with reaction buffer (136 µL, see Table below) and arrayed (45 µL) onto the CHKA-containing PCR plate.
After mixing, bubbles were removed by centrifugation (1000 × g, 1 min) and absorbance read at 340 nm on a PheraSTAR FSX (BMG Labtech), reading every minute for 10 min. Non-linear curve fitting and graph generation was performed using Graphpad Prism 8 software.
Components of the assay reaction buffer.
Component Stock concentration Volume per buffer Final reaction […]
Experiments were performed as described earlier with few modifications. In short, 3 replicates of intact HepG2 cells were treated with 30 µM UNC0638, UNC373 or corresponding volume of DMSO in medium-free experimental buffer for 60 min at 37 °C with end-over-end rotation. For lysates: Washed K562 cells were resuspended in medium-free experimental buffer and lysed by three freeze-thaw cycles. […]

GVINP1 = target: T2, GVINP1 (Homo sapiens, UniProt Q7Z2Y8); experiment: PISA thermal profiling, intact HepG2 cells; assay type: cell-based; conditions: 30 µM, 60 min, n=3
T2 construct: endogenous in cells; host or cells: intact HepG2 cells
T2 sequence (Q7Z2Y8 whole entry): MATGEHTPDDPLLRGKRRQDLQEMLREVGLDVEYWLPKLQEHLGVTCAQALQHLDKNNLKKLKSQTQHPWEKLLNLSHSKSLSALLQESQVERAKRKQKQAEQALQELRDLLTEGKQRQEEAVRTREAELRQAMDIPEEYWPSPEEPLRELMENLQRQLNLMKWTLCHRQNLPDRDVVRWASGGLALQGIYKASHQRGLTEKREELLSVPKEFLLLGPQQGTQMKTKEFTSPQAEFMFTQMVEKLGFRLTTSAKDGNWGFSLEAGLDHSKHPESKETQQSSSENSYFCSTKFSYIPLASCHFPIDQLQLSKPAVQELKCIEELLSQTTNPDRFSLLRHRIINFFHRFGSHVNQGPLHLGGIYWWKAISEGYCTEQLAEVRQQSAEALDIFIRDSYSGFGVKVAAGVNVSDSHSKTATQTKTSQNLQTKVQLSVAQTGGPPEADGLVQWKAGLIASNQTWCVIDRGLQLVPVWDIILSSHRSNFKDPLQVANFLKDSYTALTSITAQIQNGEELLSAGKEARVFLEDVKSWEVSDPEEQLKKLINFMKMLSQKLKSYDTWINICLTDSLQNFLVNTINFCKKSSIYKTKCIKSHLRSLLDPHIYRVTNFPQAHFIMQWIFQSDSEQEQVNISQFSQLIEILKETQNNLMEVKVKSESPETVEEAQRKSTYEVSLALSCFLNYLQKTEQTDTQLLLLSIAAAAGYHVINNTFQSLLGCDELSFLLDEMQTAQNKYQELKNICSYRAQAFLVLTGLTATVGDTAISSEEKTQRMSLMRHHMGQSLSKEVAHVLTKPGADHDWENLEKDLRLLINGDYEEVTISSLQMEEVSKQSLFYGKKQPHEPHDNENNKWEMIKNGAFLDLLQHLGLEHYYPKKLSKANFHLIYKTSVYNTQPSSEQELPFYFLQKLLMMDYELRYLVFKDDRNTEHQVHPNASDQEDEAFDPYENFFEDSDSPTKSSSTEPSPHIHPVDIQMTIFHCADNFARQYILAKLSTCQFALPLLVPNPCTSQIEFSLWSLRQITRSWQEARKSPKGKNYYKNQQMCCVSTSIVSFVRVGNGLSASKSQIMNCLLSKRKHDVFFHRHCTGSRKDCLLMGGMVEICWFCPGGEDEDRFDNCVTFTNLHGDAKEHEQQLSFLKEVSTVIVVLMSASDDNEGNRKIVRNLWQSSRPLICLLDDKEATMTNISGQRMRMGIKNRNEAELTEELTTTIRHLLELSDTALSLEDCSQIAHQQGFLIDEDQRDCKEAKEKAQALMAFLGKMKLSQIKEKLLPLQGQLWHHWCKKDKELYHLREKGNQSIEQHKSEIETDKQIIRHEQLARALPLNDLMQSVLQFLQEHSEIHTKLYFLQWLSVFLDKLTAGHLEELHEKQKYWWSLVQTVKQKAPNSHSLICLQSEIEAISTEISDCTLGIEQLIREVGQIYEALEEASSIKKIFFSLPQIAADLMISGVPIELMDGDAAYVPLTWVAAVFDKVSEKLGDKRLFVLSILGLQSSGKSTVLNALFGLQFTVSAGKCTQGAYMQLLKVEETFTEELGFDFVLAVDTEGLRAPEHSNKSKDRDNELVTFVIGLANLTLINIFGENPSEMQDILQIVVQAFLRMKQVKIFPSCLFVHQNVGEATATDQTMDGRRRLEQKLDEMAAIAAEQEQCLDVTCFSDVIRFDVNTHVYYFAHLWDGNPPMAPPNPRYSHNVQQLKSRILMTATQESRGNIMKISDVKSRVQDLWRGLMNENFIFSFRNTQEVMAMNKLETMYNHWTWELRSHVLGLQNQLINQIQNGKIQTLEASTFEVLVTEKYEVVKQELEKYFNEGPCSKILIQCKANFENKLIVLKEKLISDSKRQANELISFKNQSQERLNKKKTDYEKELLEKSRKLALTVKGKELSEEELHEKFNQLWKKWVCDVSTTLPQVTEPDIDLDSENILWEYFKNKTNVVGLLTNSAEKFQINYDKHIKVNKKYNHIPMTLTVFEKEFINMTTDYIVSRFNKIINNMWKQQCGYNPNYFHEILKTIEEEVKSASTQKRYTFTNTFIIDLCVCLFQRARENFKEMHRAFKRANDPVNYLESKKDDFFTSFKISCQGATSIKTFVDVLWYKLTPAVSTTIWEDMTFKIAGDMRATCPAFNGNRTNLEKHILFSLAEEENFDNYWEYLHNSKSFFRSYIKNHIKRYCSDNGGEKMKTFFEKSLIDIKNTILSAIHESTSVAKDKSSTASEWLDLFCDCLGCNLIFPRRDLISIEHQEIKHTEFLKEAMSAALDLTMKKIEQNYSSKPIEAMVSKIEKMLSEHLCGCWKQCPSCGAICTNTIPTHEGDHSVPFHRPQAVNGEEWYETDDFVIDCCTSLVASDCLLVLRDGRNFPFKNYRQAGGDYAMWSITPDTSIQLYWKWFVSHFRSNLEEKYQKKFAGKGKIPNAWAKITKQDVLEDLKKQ
Description: To further corroborate our findings, we next performed the proteome integral solubility alteration (PISA) assay in HepG2 human hepatoma cells that express high levels of CHKA. Conceptually building on the cellular thermal shift assay (CETSA) with mass spectrometry based detection,[19, 20] PISA leverages compound‐mediated stabilisation of target proteins without the need of chemical modification in intact cells. […]
as §1, §2
CHKA (120 ng, 24 µg/ml) was arrayed (5 µL) into a 96 well semi-skirted real time PCR plate. 4-fold dilution series and vehicle controls (0.5% DMSO) were prepared in a separate plate. A further DMSO control was included for use with a no protein well control. […]
After mixing, bubbles were removed by centrifugation (1000 × g, 1 min) and absorbance read at 340 nm on a PheraSTAR FSX (BMG Labtech), reading every minute for 10 min. […]
by centrifugation at 30,000 × g for 20 min at 4 °C. The soluble fractions were collected to fresh tubes and further processed to be analysed with mass spectrometry. […]
Sample preparation for the quantification of metabolites by nuclear magnetic resonance (NMR) spectroscopy was performed as described previously.[13] […]

CHKA [2] = target: T1, CHKA; experiment: Differential scanning fluorimetry (DSF); assay type: binding; parameters: host or cells: E. coli BL21(DE3); conditions: 10 µM compound, 2 µM CHKA
Method: mM NaCl, 5% glycerol, 500 mM imidazole, 0.5% TCEP, pH 7.5), the eluent was concentrated, and further purified by size exclusion chromatography using a HiLoad 16/600 Superdex S200 column (Cytiva) pre-equilibrated in Buffer C (20 mM HEPES, 150 mM NaCl, pH 7.5). The resulting protein purity was assessed by SDS-PAGE, and protein identity was confirmed by tryptic digest analysis. Protein concentration was determined to be 35.5 mg/mL, and was calculated using a theoretical molar extinction coefficient of 58830 M-1cm-1 as determined by ProtParam.[5] […]
Differential Scanning Fluorimetry (DSF)
DSF buffer (20 mM HEPES, 150 mM NaCl, 0.5 mM TCEP, pH 7.5) containing 5x SYPRO Orange (Thermo Fisher Scientific) and CHKA (2 µM) was incubated with 10 µM compound at 2% DMSO final concentration in a 96-well semi-skirted real time PCR plate. Fluorescence was measured in each well over a 40-80 °C gradient using a Stratagen MX3005p qPCR instrument (Agilent Technologies). […]

T1 sequence (P35790 75-457 limits assumed): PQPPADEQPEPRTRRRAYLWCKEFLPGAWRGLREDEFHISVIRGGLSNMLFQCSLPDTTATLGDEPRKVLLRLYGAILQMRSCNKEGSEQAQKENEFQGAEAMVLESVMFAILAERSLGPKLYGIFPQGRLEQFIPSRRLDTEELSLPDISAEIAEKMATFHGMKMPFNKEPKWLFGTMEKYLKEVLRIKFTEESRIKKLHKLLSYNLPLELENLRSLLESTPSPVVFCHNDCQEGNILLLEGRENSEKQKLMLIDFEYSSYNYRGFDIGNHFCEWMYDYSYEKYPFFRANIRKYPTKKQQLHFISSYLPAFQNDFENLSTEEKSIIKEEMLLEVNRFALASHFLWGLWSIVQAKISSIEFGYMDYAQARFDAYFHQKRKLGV

Row | Compound | CHKA catalytic activity (CHKA [1]) | effect_CETSA_Intact (PISA amplitude), GVINP1 (GVINP1) | thermal stabilisation of CHKA (DSF) (CHKA [2])
1 | COc1cc2c(NC3CCN(C(C)C)CC3)nc(C3CCCCC3)nc2cc1OCCCN1CCCC1 [UNC0638] | suppressed CHKA catalytic activity | 0.358 | thermal stabilisation
2 | COc1cc2c(N(C)C3CCN(C(C)C)CC3)nc(C3CCCCC3)nc2cc1OCCCN1CCCC1 [UNC0737] | suppressed CHKA catalytic activity | 0.871 | thermal stabilisation
